# Measurements from patent US4079177A, “Clavulanic acid carbamates” (Beecham Group Limited, priority 1975, dated 1978).
# What was measured:
# [1] = system: Staphylococcus aureus Russell; test: Minimum inhibitory concentration (mic), synergistical activity against β-lactamase producing organisms; format: cell-based; settings: substance alone
# Protocol: (§1) The minimum inhibitory concentrations (mic) of ampicillin N-methylcarbamoylclavulanic acid, and mixtures of ampicillin and N-methylcarbamoylclavulanic acid were determined against 4 β-lactamase producing organisms.
# (§2) MIC's (in μg/ml) of Ampicillin and N-methylcarbamoylclavulanic acid
# (§3) combinations thereof against 4 β-lactamase producing organisms.
# Escherichia coli JT4 = test: as above; format: cell-based; settings: substance alone
# Protocol: as §1, §2, §3
# Proteus mirabilis C889 = test: as above; format: cell-based; settings: substance alone
# Protocol: as §1, §2, §3
# Klebsiella aerogenes E70 = test: as above; format: cell-based; settings: substance alone
# Protocol: as §1, §2, §3
# [2] = Stability of n.m.r. solution (D2O); format: physicochemical
# Source text: n.m.r. (D2 O) 2.88 (3H,s, NCH3) 3.20 (1H,d, J 18Hz, 6β-CH) 3.70 (1H,dd, J 18Hz J' 3Hz 6α-CH) 5.7δ (1H,d, J 3Hz, 5-CH); the other protons were obscured by the water peak.
Compound,MIC [1],MIC (Escherichia coli JT4),MIC (Proteus mirabilis C889),MIC (Klebsiella aerogenes E70),degradation of the n.m.r. solution [2]
"CC1(C)S[C@@H]2[C@H](NC(=O)[C@H](N)c3ccccc3)C(=O)N2[C@H]1C(=O)O [Ampicillin, ampicillin, reference compound]",500 µg/mL,> 5000 µg/mL,> 500 µg/mL,250 µg/mL,–
CNC(=O)OC/C=C1\O[C@@H]2CC(=O)N2[C@H]1C(=O)O [Sodium N-methylcarbamoylclavulanate],–,–,–,–,signs of rapid degradation
CNC(=O)OC/C=C1\O[C@@H]2CC(=O)N2[C@H]1C(=O)O [N-methylcarbamoylclavulanic acid],250 µg/mL,> 500 µg/mL,> 500 µg/mL,500 µg/mL,–
